{"source": "patent US20140303092A1", "about": "(CHIMERIX, INC., priority 2011, published 2014)", "key": {"P-gp": {"target": "P-gp (Homo sapiens, UniProt P08183)", "sequence (P08183 whole entry)": "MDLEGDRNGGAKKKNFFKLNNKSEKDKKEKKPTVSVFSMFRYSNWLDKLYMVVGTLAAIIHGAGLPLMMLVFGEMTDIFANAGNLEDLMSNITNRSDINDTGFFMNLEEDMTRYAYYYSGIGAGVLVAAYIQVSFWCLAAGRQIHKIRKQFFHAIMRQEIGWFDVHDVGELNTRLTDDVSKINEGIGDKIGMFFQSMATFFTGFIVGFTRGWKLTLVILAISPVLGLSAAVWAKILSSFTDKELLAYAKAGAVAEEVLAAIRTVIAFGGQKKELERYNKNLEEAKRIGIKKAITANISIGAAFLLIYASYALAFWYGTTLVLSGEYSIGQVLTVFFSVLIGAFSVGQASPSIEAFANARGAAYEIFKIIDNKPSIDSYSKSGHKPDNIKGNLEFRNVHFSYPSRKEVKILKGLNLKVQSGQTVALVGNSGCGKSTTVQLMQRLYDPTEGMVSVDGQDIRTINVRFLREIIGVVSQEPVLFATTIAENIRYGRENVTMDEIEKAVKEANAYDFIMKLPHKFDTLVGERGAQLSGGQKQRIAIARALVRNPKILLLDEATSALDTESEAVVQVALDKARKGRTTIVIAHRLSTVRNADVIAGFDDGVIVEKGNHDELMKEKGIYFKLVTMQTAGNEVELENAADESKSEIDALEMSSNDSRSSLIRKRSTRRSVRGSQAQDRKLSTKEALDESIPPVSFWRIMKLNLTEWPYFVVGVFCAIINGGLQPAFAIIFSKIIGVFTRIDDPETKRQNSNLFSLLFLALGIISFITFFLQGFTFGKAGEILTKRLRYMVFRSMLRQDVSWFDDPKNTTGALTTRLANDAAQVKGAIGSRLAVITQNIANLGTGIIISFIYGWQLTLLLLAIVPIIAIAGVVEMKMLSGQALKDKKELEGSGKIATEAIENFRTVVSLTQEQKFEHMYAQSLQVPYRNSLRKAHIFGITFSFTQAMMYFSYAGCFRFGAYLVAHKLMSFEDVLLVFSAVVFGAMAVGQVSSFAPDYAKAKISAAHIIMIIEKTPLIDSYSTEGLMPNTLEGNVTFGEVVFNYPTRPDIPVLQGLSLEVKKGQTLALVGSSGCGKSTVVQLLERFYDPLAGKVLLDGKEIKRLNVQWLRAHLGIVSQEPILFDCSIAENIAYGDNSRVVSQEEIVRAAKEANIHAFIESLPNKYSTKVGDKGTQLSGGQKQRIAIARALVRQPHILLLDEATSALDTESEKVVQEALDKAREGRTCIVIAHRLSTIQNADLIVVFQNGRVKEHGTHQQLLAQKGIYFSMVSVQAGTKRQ", "experiment": "P-gp inhibition in vitro", "format": "in vitro ADME", "settings": "in vitro results", "source_text": "Due to this potential interaction, digoxin is excluded medication in Study HDP-CDV-301 (see Example 5)."}, "CMV": {"test_system": "CMV", "experiment": "Study HDP-CDV-350: virologic response of refractory CMV infection in HCT recipients", "format": "in vivo, human (allogeneic HCT recipients)", "settings": "for Proportion of subjects with ≧1 log10 last on-treatment reduction or last on-treatment reduction to ≦ LLOQ / Proportion of subjects with ≧1 log10 postbaseline reduction in CMV DNAemia or postbaseline reduction to ≦ LLOQ: LLOQ 100 copies/mL", "description": "The virologic responses of 16 allogeneic HCT recipients enrolled and treated with HDP-CDV due to refractory CMV infection or disease and/or intolerance to available anti-CMV medications were evaluated.\nAll subjects completed a screening assessment (including obtaining written informed consent and, where applicable, assent) prior to initiating treatment with HDP-CDV.\nHDP-CDV was given orally twice weekly (BIW); 100 mg BIW for adults or 2 mg/kg BIW for pediatrics. […] Eligible subjects received either a weight-based or fixed dose of HDP-CDV. Pediatric subjects (≦12 years old) received a 4 mg/kg total weekly dose (not-to-exceed 200 mg), as either 2 mg/kg twice-weekly (BIW) or 4 mg/kg once-weekly (QW). Adults and adolescent (13-17 years old) subjects received a 200 mg (not to exceed 4 mg/kg) total weekly dose, as either 100 mg BIW or 200 mg QW. BIW doses were administered at alternating 3- and 4-day intervals and QW doses on the same day each week.\nSubjects were treated for an initial period of up to 3 months until either resolution or stabilization of their clinical disease or for 4 weeks following resolution of viral DNAemia, depending on the disease under treatment, whichever was longer. Treatment is extended for up to an additional 3 months, for a total duration of 6 months treatment, depending on the subject's clinical response.\nSubjects underwent extensive safety monitoring, including routine safety laboratory assessments, physical examination, and vital sign measurements at regular intervals. In addition, subjects were monitored for viral DNA burden in plasma (DNAemia) and other affected compartments (e.g., urine, stool, CSF, etc.). Assessments were performed weekly for the first month, every 1 or 2 weeks for the next 2 months, and monthly thereafter for as long as treatment was continued. Subjects were monitored for adverse events (AEs) and for selected concomitant medication throughout the entire study, including the 1 month posttreatment follow-up period."}, "[1]": {"settings": "in vivo"}, "AdV": {"test_system": "AdV", "experiment": "In vitro antiviral activity in cell culture, AdV", "format": "cell-based", "settings": "unidentified adenovirus"}}, "data": [{"compound": "CCCCCCCCCCCCCCCCOCCCOP(=O)(O)COC(CO)Cn1ccc(N)nc1=O", "note": "(stereo not drawn) [HDP-CDV]", "values": [{"measurement": "inhibition of P-gp", "setting": "P-gp", "result": "may inhibit P-gp"}, {"measurement": "Maximal reduction in CMV VL from BL, mean (range)", "setting": "CMV; 16 HCT recipients, 100 mg BIW adults or 2 mg/kg BIW pediatrics", "result": "1.13 (−0.30-2.60) log10"}, {"measurement": "Mean last on-treatment change from baseline CMV DNAemia", "setting": "CMV; 16 subjects, qPCR plasma", "result": "−0.63", "unit": "log10 copies/mL"}, {"measurement": "Mean maximal postbaseline change in CMV DNAemia", "setting": "CMV; 16 subjects, qPCR plasma", "result": "−1.13", "unit": "log10 copies/mL"}, {"measurement": "Change from Baseline CMV DNAemia, Mean", "setting": "CMV; +1 Month Posttreatment, N 8", "result": "−1.00", "unit": "log10 copies/mL"}, {"measurement": "Change from Baseline CMV DNAemia, Mean", "setting": "CMV; +1 Week Posttreatment, N 9", "result": "−0.63", "unit": "log10 copies/mL"}, {"measurement": "Proportion of subjects with ≧1 log10 last on-treatment reduction or last on-treatment reduction to ≦ LLOQ", "setting": "CMV", "result": "(62.5%)"}, {"measurement": "Proportion of subjects with ≧1 log10 postbaseline reduction in CMV DNAemia or postbaseline reduction to ≦ LLOQ", "setting": "CMV", "result": "(81.3%)"}, {"measurement": "Change from Baseline CMV DNAemia, Mean", "setting": "CMV; Month 3, N 7", "result": "+0.16 log10 copies/mL"}, {"measurement": "Change from Baseline CMV DNAemia, Mean", "setting": "CMV; Month 4, N 4", "result": "−0.89", "unit": "log10 copies/mL"}, {"measurement": "Change from Baseline CMV DNAemia, Mean", "setting": "CMV; Month 5, N 3", "result": "−0.84", "unit": "log10 copies/mL"}, {"measurement": "Change from Baseline CMV DNAemia, Mean", "setting": "CMV; Month 6, N 3", "result": "−0.80", "unit": "log10 copies/mL"}, {"measurement": "subjects with >1 log10 reduction or ≦LOQ (2 log10) during tx", "setting": "CMV; Thirteen of 16 subjects", "result": 81, "unit": "%"}, {"measurement": "Change from Baseline CMV DNAemia, Mean", "setting": "CMV; Week 2, N 16", "result": "−0.22", "unit": "log10 copies/mL"}, {"measurement": "Change from Baseline CMV DNAemia, Mean", "setting": "CMV; Week 3, N 15", "result": "−0.30", "unit": "log10 copies/mL"}, {"measurement": "Change from Baseline CMV DNAemia, Mean", "setting": "CMV; Week 4, N 15", "result": "−0.52", "unit": "log10 copies/mL"}, {"measurement": "Change from Baseline CMV DNAemia, Mean", "setting": "CMV; Week 5, N 14", "result": "−0.63", "unit": "log10 copies/mL"}, {"measurement": "Change from Baseline CMV DNAemia, Mean", "setting": "CMV; Week 6, N 6", "result": "−0.66", "unit": "log10 copies/mL"}, {"measurement": "Change from Baseline CMV DNAemia, Mean", "setting": "CMV; Week 7, N 10", "result": "−0.16", "unit": "log10 copies/mL"}, {"measurement": "Change from Baseline CMV DNAemia, Mean", "setting": "CMV; Week 8, N 3", "result": "+0.22 log10 copies/mL"}, {"measurement": "Change from Baseline CMV DNAemia, Mean", "setting": "CMV; Week 9, N 8", "result": "−0.02", "unit": "log10 copies/mL"}, {"measurement": "Change from Baseline CMV DNAemia, Mean", "setting": "CMV; Week 10, N 2", "result": "+0.11 log10 copies/mL"}, {"measurement": "Change from Baseline CMV DNAemia, Mean", "setting": "CMV; Week 11, N 9", "result": "+0.06 log10 copies/mL"}, {"measurement": "Proportion of subjects with ≧1 log10 last on-treatment reduction or last on-treatment reduction to ≦ LLOQ", "setting": "CMV; subjects/N", "result": "10/16"}, {"measurement": "Proportion of subjects with ≧1 log10 postbaseline reduction in CMV DNAemia or postbaseline reduction to ≦ LLOQ", "setting": "CMV; subjects/N", "result": "13/16"}, {"measurement": "Minor increases in ALT", "setting": "[1]", "result": "2-5 fold"}, {"measurement": "EC50", "setting": "AdV", "result": 0.02, "unit": "µM"}]}]}
